One assay deals with T1, human GLP-1R (Homo sapiens, UniProt P43220).
T1 construct: expressed in transfected cells; host or cells: HEK293
The experiment in a line: cAMP formation in HEK293 cells expressing human GLP-1R. It is filed as cell-based. As to conditions: 15 min at 37° C. The source says:
(§1) Similarly, activation of the GLP-1 receptor by a GLP-1 agonist will stimulate cellular cAMP formation. Thus, production of cAMP in suitable cells expressing one of these two receptors can be used to monitor the relevant receptor activity.
(§2) The skilled person will be aware of suitable assay formats, and examples are provided below. […] (Where sequences of precursor proteins are referred to, it should of course be understood that assays may make use of the mature protein, lacking the signal sequence).
(§3) On the day of analysis, growth medium was removed and the cells washed once with 200 μl Tyrode buffer. Cells were incubated in […] containing increasing concentrations of test peptides, 100 μM IBMX, and 6 mM glucose for 15 min at 37° C. The reaction was stopped by addition of 25 μl 0.5 M HCl and incubated on ice for 60 min. The cAMP content was estimated using the FlashPlate® cAMP kit from Perkin-Elmer. EC50 values were estimated by computer aided curve fitting.
A general note: Cyclic AMP is a second messenger, typically raised through Gs and lowered through Gi signalling.

The target of the next assay is T2, human glucagon receptor (Homo sapiens, UniProt P47871).
T2 construct: expressed in transfected cells; host or cells: HEK293
T2 sequence (P47871 26-477): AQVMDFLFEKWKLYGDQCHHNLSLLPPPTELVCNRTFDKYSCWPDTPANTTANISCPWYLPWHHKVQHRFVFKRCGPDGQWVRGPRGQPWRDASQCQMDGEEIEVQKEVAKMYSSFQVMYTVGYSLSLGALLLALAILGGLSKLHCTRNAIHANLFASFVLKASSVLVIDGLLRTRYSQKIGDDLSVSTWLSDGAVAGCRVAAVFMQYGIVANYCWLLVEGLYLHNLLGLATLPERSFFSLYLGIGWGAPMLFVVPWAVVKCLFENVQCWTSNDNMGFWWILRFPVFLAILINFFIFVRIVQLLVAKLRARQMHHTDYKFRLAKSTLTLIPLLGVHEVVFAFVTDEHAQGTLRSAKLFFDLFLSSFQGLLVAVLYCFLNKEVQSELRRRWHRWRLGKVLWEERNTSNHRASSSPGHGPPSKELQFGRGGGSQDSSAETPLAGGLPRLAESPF
The experiment in a line: cAMP formation in HEK293 cells expressing the human glucagon receptor. The format is cell-based. The settings on record: 15 min at 37° C., read-out: EC50 (nM) GuR.
Source text: as §1, §2, §3

Numbered stars: 1 amine (or outer) side, 2 acyl side, 3 side chain; on linkers, the order of the positions; unused ones are H or OH. Bridge positions count the residues as written; N and C are the ends. Square brackets hold non-standard residues; d marks the D form. Side chains are listed from the residue outwards. Peptide text beside a SMILES is read from it. * marks the point of attachment. γGlu = O=C(O)[C@H](CCC(=O)[*:2])N[*:1]; Palmitoyl = CCCCCCCCCCCCCCCC(=O)*; Aib = CC(C)(N)C(=O)O

This passage reports EC50 results from patent publication US20130157953A1, “TREATMENT OF CARDIAC CONDITIONS” (Zealand Pharma A/S, priority 2010, published 2013).

T1 sequence (P43220 24-463): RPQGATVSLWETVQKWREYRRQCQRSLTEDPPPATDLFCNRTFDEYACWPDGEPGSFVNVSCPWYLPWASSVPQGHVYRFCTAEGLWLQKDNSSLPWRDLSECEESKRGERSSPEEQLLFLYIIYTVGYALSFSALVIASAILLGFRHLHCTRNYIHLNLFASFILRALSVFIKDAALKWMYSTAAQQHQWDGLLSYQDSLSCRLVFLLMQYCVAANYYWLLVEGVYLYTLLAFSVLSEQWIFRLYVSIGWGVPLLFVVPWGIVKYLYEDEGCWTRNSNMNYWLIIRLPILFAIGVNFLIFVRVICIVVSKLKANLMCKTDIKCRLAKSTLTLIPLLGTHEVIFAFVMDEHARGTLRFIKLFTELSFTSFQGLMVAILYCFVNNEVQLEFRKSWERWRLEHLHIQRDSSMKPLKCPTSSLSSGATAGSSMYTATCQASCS

In turn, `CC(C)C[C@H](NC(=O)[C@H](CC(C)C)NC(=O)[C@H](Cc1c[nH]c2ccccc12)NC(=O)[C@H](CCC(=O)O)NC(=O)[C@@H](NC(=O)[C@H](Cc1ccccc1)NC(=O)[C@H](CC(=O)O)NC(=O)[C@H](Cc1c[nH]cn1)NC(=O)[C@H](C)NC(=O)[C@H](C)NC(=O)[C@H](CCCCN)NC(=O)[C@H](CO)NC(=O)[C@H](CC(=O)O)NC(=O)[C@H](CC(C)C)NC(=O)[C@H](Cc1ccc(O)cc1)NC(=O)[C@H](CCCCN)NC(=O)[C@H](CO)NC(=O)[C@H](Cc1ccc(O)cc1)NC(=O)[C@H](CC(=O)O)NC(=O)[C@H](CO)NC(=O)[C@@H](NC(=O)[C@H](Cc1ccccc1)NC(=O)[C@@H](NC(=O)CNC(=O)[C@H](CCC(N)=O)NC(=O)[C@@H](CO)NC(=O)[C@@H](N)Cc1c[nH]cn1)[C@@H](C)O)[C@@H](C)O)C(C)C)C(=O)N[C@@H](CCCNC(=N)N)C(=O)N[C@@H](C)C(N)=O` [Compound 44] (H-H[dS]QGTFTSDYSKYLDSKAAHDFVEWLLRA-NH2) had a concentration giving a half-maximal response (EC50) at human GLP-1R of 0.09 nM.

In turn, `CCCCCCCCCCCCCCCC(=O)N[C@@H](CCC(=O)NCCCC[C@H](NC(=O)[C@H](CC(=O)O)NC(=O)[C@H](CC(C)C)NC(=O)[C@H](Cc1ccc(O)cc1)NC(=O)[C@H](CCCCN)NC(=O)[C@H](CO)NC(=O)[C@H](Cc1ccc(O)cc1)NC(=O)[C@H](CC(=O)O)NC(=O)[C@H](CO)NC(=O)[C@@H](NC(=O)[C@H](Cc1ccccc1)NC(=O)[C@@H](NC(=O)CNC(=O)[C@H](CCC(N)=O)NC(=O)[C@H](CO)NC(=O)[C@@H](N)Cc1c[nH]cn1)[C@@H](C)O)[C@@H](C)O)C(=O)N[C@@H](CCCCN)C(=O)N[C@@H](C)C(=O)N[C@@H](C)C(=O)N[C@@H](Cc1c[nH]cn1)C(=O)N[C@@H](CC(=O)O)C(=O)N[C@@H](Cc1ccccc1)C(=O)N[C@H](C(=O)N[C@@H](CCC(=O)O)C(=O)N[C@@H](Cc1c[nH]c2ccccc12)C(=O)N[C@@H](CC(C)C)C(=O)N[C@@H](CC(C)C)C(=O)N[C@@H](CCCNC(=N)N)C(=O)N[C@@H](C)C(N)=O)C(C)C)C(=O)O` [Compound 202] (H-HSQGTFTSDYSKYLDK([γGlu-Palmitoyl])KAAHDFVEWLLRA-NH2) displayed an EC50 at human GLP-1R of 0.2 nM.

The compound `CCCCCCCCCCCCCCCC(=O)N[C@@H](CCC(=O)NCCCC[C@H](NC(=O)[C@H](CO)NC(=O)[C@H](CC(=O)O)NC(=O)[C@H](CC(C)C)NC(=O)[C@H](Cc1ccc(O)cc1)NC(=O)[C@H](CCCCN)NC(=O)[C@H](CO)NC(=O)[C@H](Cc1ccc(O)cc1)NC(=O)[C@H](CC(=O)O)NC(=O)[C@H](CO)NC(=O)[C@@H](NC(=O)[C@H](Cc1ccccc1)NC(=O)[C@@H](NC(=O)CNC(=O)[C@H](CCC(N)=O)NC(=O)C(C)(C)NC(=O)[C@@H](N)Cc1c[nH]cn1)[C@@H](C)O)[C@@H](C)O)C(=O)N[C@@H](C)C(=O)N[C@@H](C)C(=O)N[C@@H](Cc1c[nH]cn1)C(=O)N[C@@H](CC(=O)O)C(=O)N[C@@H](Cc1ccccc1)C(=O)N[C@H](C(=O)N[C@H]1CCC(=O)NCCCC[C@@H](C(=O)N[C@@H](C)C(N)=O)NC(=O)[C@H](CC(C)C)NC(=O)[C@H](CC(C)C)NC(=O)[C@H](Cc2c[nH]c3ccccc23)NC1=O)C(C)C)C(=O)O` [Compound 210] (H-H[Aib]QGTFTSDYSKYLDSK([γGlu-Palmitoyl])AAHDFVEWLLKA-NH2; lactam 24-28) had a concentration for a half-maximal effect (EC50) on human GLP-1R of 0.08 nM.

Consider `CCCCCCCCCCCCCCCC(=O)NCCC(=O)NCCCC[C@H](NC(=O)[C@H](CO)NC(=O)[C@H](CC(=O)O)NC(=O)[C@H](CC(C)C)NC(=O)[C@H](Cc1ccc(O)cc1)NC(=O)[C@H](CCCCN)NC(=O)[C@H](CO)NC(=O)[C@H](Cc1ccc(O)cc1)NC(=O)[C@H](CC(=O)O)NC(=O)[C@H](CO)NC(=O)[C@@H](NC(=O)[C@H](Cc1ccccc1)NC(=O)[C@@H](NC(=O)CNC(=O)[C@H](CCC(N)=O)NC(=O)C(C)(C)NC(=O)[C@@H](N)Cc1c[nH]cn1)[C@@H](C)O)[C@@H](C)O)C(=O)N[C@@H](C)C(=O)N[C@@H](C)C(=O)N[C@@H](Cc1c[nH]cn1)C(=O)N[C@@H](CC(=O)O)C(=O)N[C@@H](Cc1ccccc1)C(=O)N[C@H](C(=O)N[C@@H](CCC(=O)O)C(=O)N[C@@H](Cc1c[nH]c2ccccc12)C(=O)N[C@@H](CC(C)C)C(=O)N[C@@H](CC(C)C)C(=O)N[C@@H](CO)C(=O)N[C@@H](C)C(N)=O)C(C)C` [Compound 215], for which the EC50 at human GLP-1R was 0.23 nM.

Compound `CCCCCCCCCCCCCCCC(=O)NCCCCCCCC(=O)NCCCC[C@H](NC(=O)[C@H](CO)NC(=O)[C@H](CC(=O)O)NC(=O)[C@H](CC(C)C)NC(=O)[C@H](Cc1ccc(O)cc1)NC(=O)[C@H](CCCCN)NC(=O)[C@H](CO)NC(=O)[C@H](Cc1ccc(O)cc1)NC(=O)[C@H](CC(=O)O)NC(=O)[C@H](CO)NC(=O)[C@@H](NC(=O)[C@H](Cc1ccccc1)NC(=O)[C@@H](NC(=O)CNC(=O)[C@H](CCC(N)=O)NC(=O)C(C)(C)NC(=O)[C@@H](N)Cc1c[nH]cn1)[C@@H](C)O)[C@@H](C)O)C(=O)N[C@@H](C)C(=O)N[C@@H](C)C(=O)N[C@@H](Cc1c[nH]cn1)C(=O)N[C@@H](CC(=O)O)C(=O)N[C@@H](Cc1ccccc1)C(=O)N[C@H](C(=O)N[C@@H](CCC(=O)O)C(=O)N[C@@H](Cc1c[nH]c2ccccc12)C(=O)N[C@@H](CC(C)C)C(=O)N[C@@H](CC(C)C)C(=O)N[C@@H](CO)C(=O)N[C@@H](C)C(N)=O)C(C)C` [Compound 216] registered an EC50 at human GLP-1R of 0.24 nM.

In turn, `CCCCCCCCCCCCCCCC(=O)NCCCC[C@H](N)C(=O)NCCCC[C@H](NC(=O)[C@H](CO)NC(=O)[C@H](CC(=O)O)NC(=O)[C@H](CC(C)C)NC(=O)[C@H](Cc1ccc(O)cc1)NC(=O)[C@H](CCCCN)NC(=O)[C@H](CO)NC(=O)[C@H](Cc1ccc(O)cc1)NC(=O)[C@H](CC(=O)O)NC(=O)[C@H](CO)NC(=O)[C@@H](NC(=O)[C@H](Cc1ccccc1)NC(=O)[C@@H](NC(=O)CNC(=O)[C@H](CCC(N)=O)NC(=O)C(C)(C)NC(=O)[C@@H](N)Cc1c[nH]cn1)[C@@H](C)O)[C@@H](C)O)C(=O)N[C@@H](C)C(=O)N[C@@H](C)C(=O)N[C@@H](Cc1c[nH]cn1)C(=O)N[C@@H](CC(=O)O)C(=O)N[C@@H](Cc1ccccc1)C(=O)N[C@H](C(=O)N[C@@H](CCC(=O)O)C(=O)N[C@@H](Cc1c[nH]c2ccccc12)C(=O)N[C@@H](CC(C)C)C(=O)N[C@@H](CC(C)C)C(=O)N[C@@H](CO)C(=O)N[C@@H](C)C(N)=O)C(C)C` [Compound 217] returned an EC50 on human GLP-1R of 0.09 nM.

At human GLP-1R, `CSCC[C@H](NC(=O)[C@H](CC(C)C)NC(=O)[C@H](Cc1c[nH]c2ccccc12)NC(=O)[C@@H](NC(=O)[C@H](Cc1ccccc1)NC(=O)[C@H](CC(=O)O)NC(=O)[C@@H]1CCC(=O)NCCCC[C@H](NC(=O)[C@H](CC(=O)O)NC(=O)[C@H](CC(C)C)NC(=O)[C@H](Cc2ccc(O)cc2)NC(=O)[C@H](CCCCN)NC(=O)[C@H](CO)NC(=O)[C@H](Cc2ccc(O)cc2)NC(=O)[C@H](CC(=O)O)NC(=O)[C@H](CO)NC(=O)[C@@H](NC(=O)[C@H](Cc2ccccc2)NC(=O)[C@@H](NC(=O)CNC(=O)[C@H](CCC(N)=O)NC(=O)[C@H](CO)NC(=O)[C@@H](N)Cc2c[nH]cn2)[C@@H](C)O)[C@@H](C)O)C(=O)N[C@@H](CCCNC(=N)N)C(=O)N[C@@H](CCCNC(=N)N)C(=O)N[C@@H](C)C(=O)N1)C(C)C)C(=O)N[C@@H](CC(N)=O)C(=O)N[C@H](C(N)=O)[C@@H](C)O` [Compound 257] (H-HSQGTFTSDYSKYLDKRRAEDFVWLMNT-NH2; lactam 16-20) had a concentration for a half-maximal effect (EC50) of 0.1 nM.

On to `CCCCCCCCCCCCCCCC(=O)N[C@@H](CCC(=O)NCCCC[C@H](NC(=O)[C@H](CO)NC(=O)[C@H](CC(=O)O)NC(=O)[C@H](CC(C)C)NC(=O)[C@H](Cc1ccc(O)cc1)NC(=O)[C@H](CCCCN)NC(=O)[C@H](CO)NC(=O)[C@H](Cc1ccc(O)cc1)NC(=O)[C@H](CC(=O)O)NC(=O)[C@H](CO)NC(=O)[C@@H](NC(=O)[C@H](Cc1ccccc1)NC(=O)[C@@H](NC(=O)CNC(=O)[C@H](CCC(N)=O)NC(=O)[C@H](CO)NC(=O)[C@@H](N)Cc1c[nH]cn1)[C@@H](C)O)[C@@H](C)O)C(=O)N[C@@H](C)C(=O)N[C@@H](C)C(=O)N[C@@H](Cc1c[nH]cn1)C(=O)N[C@@H](CC(=O)O)C(=O)N[C@@H](Cc1ccccc1)C(=O)N[C@H](C(=O)N[C@@H](CCC(=O)O)C(=O)N[C@@H](Cc1c[nH]c2ccccc12)C(=O)N[C@@H](CC(C)C)C(=O)N[C@@H](CC(C)C)C(=O)N[C@@H](CCCNC(=N)N)C(=O)N[C@@H](C)C(N)=O)C(C)C)C(=O)O` [Compound 262] (H-HSQGTFTSDYSKYLDSK([γGlu-Palmitoyl])AAHDFVEWLLRA-NH2), for which the concentration for a half-maximal effect (EC50) on human GLP-1R was 0.11 nM.

With “H-HSQGTFTSDYSKYLDSKAAHDFVEWLLRA-NH2 [Compound 48]”, on human glucagon receptor, the EC50 turned out to be 0.06 nM.

On to “H-HSQGTFTSDYSKYLDSKAAQDFVWLMNT-NH2 [Compound 260]”, for which the 50% effective concentration (EC50) on human glucagon receptor was determined as 0.07 nM.

As for “H-HSQGTFTSDYSRYLDERRAQDFVWLMNT-NH2 [Compound 258]”, the EC50 on human glucagon receptor amounted to 0.06 nM.

At human GLP-1R, “H-HSQGTFTSDYSRYLDSRRAKDFVWLLNT-NH2 [Compound 252]” had a concentration for a half-maximal effect (EC50) of 0.5 nM.

A word on the EC50: it is the concentration that produces a half-maximal response.
